Experimental data: patent US4803066A, “Antibacterial and/or antifungal compositions for topical application” (Smith & Nephew Associated Companies p.l.c., priority 1986, dated 1989)
Values after ≈ are worked out from the molar mass of the structure shown.

How the values were obtained:
[1] = tested on: E. Coli 0029; test: microbe, parasite or virus in culture; details: Escherichia coli, read-out: MIC: Individual Agents
Protocol: (§1) The test method employed was as follows suspensions of each agent or combination of agents were prepared at a range of dilutions in 60% propylene glycol in water. Isosensitest (trade mark) broth was inoculated with a test organism at a concentration of 10^5 organisms per ml and a sample was dispensed into wells of a microliter plate. The range of concentration of test substance or combination was added to the wells so that there was a further 10-fold dilution of the test substance or combination. The plates were incubated for either 24 or 48 hours at 37° C., and the MIC read as the lowest concentration giving no visible growth. For each organism tested all conditions of inoculum preparation, inoculation and incubation were standardised throughout.

[2] = tested on: C. albicans V; test: MIC of agents individually and in combination (broth, microtitre plate); details: Candida albicans, read-out: MIC: Individual Agents
Protocol: as §1

[3] = tested on: Staph. aureus; test: microbe, parasite or virus in culture; details: Staphylococcus aureus, read-out: MIC: Individual Agents
Protocol: as §1

[4] = tested on: C. albicans V ATCC 10231; test: MIC of silver nitrate and clotrimazole individually and in combination (broth, microtitre plate); format: cell-based, Candida albicans; details: for MIC: Individual Agents: alone; for MIC: Individual Agents / MIC: Combination of Agents, Silver nitrate / MIC: Combination of Agents, Clotrimazole: C. albicans V ATCC 10231; for MIC: Combination of Agents, Silver nitrate: in combination with clotrimazole; for MIC: Combination of Agents, Clotrimazole: in combination with silver nitrate
Protocol: as §1

[5] = tested on: C. albicans I; test: microbe, parasite or virus in culture; details: Candida albicans, read-out: MIC: Individual Agents
Protocol: as §1

[6] = tested on: Enterococcus 0022; test: microbe, parasite or virus in culture; details: Enterococcus, 0022, read-out: MIC: Individual Agents
Protocol: as §1

[7] = tested on: Staph. aureus 1300; test: microbe, parasite or virus in culture; details: Staphylococcus aureus, 1300, read-out: MIC: Individual Agents
Protocol: as §1

[8] = tested on: Staph. aureus NCTC 10788; test: microbe, parasite or virus in culture; details: Staphylococcus aureus, NCTC10788, read-out: MIC: Individual Agents
Protocol: as §1

[9] = tested on: C. albicans 159; test: microbe, parasite or virus in culture; details: Candida albicans, 159, read-out: MIC: Individual Agents
Protocol: as §1

SMILES	MIC [1] [µg/mL]	MIC [2] [µg/mL]	MIC [3] [µg/mL]	MIC: Individual Agents ([4]; Table 3) [µg/mL]	MIC: Combination of Agents, Silver nitrate ([4]; Table 3) [µg/mL]	MIC: Individual Agents ([4]; Table 4) [µg/mL]	MIC: Combination of Agents, Silver nitrate ([4]; Table 4) [µg/mL]	MIC [5] [µg/mL]	MIC [6] [µg/mL]	MIC [7] [µg/mL]	MIC [8] [µg/mL]	MIC [9] [µg/mL]	MIC ([4]; Candida albicans, ATCC10231, read-out: MIC: Individual Agents) [µg/mL]	MIC: Combination of Agents, Clotrimazole ([4]; Table 3) [µg/mL]	MIC: Combination of Agents, Clotrimazole ([4]; Table 4) [µg/mL]
Clc1ccc(COC(Cn2ccnc2)c2ccc(Cl)cc2Cl)c(Cl)c1 (centres unmarked) [Miconazole nitrate, 1-{2-(2,4-dichlorophenyl)-2-[(2,4-dichlorophenyl)methoxy]ethyl}-1H-imidazole]	> 500	62.5	> 500	–	–	–	–	–	–	–	–	–	–	–	–
O=[N+]([O-])[O-].[Ag+] [Silver nitrate, silver nitrate]	–	–	–	25	6.25	25	6.25	–	–	–	–	–	–	–	–
Clc1ccccc1C(c1ccccc1)(c1ccccc1)n1ccnc1 [Clotrimazole, 1-{(2-chlorophenyl)diphenylmethyl}-1H-imidazole]	–	0.5	–	–	–	12.5	–	5 (≈ 14.5 µM)	100 (≈ 290 µM)	100 (≈ 290 µM)	100 (≈ 290 µM)	25 (≈ 72.5 µM)	12.5	3.125	3.125
